Experimental data from ChEMBL document CHEMBL1201862, “PubChem BioAssay data set” (2004).
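Five compound concentrations were applied to cells in 96-well plates for 48 hours; endpoints were derived by simple linear interpolation of the resulting dose-response curve. GI50: concentration for 50% inhibition of growth.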 The source made the active and inactive calls. Cut-off read from the data, not from the text of the source: active = GI50 up to about 1.1 µM and inactive = higher.

Experiments:
Experiment in all cases: NCI anticancer screen, dose series, 48 h
[1] = test system: 786-0
[2] = test system: CAKI-1
[3] = test system: DU-145
[4] = test system: EKVX
[5] = test system: HCT-15
[6] = test system: IGROV-1
[7] = test system: KM12
[8] = test system: M14
[9] = test system: MDA-MB-231
[10] = test system: NCI-H226
[11] = test system: RXF 393
[12] = test system: SF-295
[13] = test system: SK-MEL-2
[14] = test system: SK-MEL-5
[15] = test system: SK-OV-3
[16] = test system: SNB-75
[17] = test system: SW-620
[18] = test system: TK-10
[19] = test system: UACC-257
[20] = test system: RPMI-8226

Structure (SMILES) | GI50 [1] | GI50 [2] | GI50 [3] | GI50 [4] | GI50 [5] [µM] | GI50 [6] | GI50 [7] | GI50 [8] | GI50 [9] | GI50 [10] | GI50 [11] | GI50 [12] | GI50 [13] | GI50 [14] | GI50 [15] | GI50 [16] | GI50 [17] | GI50 [18] | GI50 [19] | GI50 [20]
Cc1c2ccccc2c(C2C3C(=O)N(c4cccc5ccccc45)C(=O)C3ON2Cc2ccc(CC(N)=O)cc2)c2ccccc12 (configuration not stated) | 24.4 µM (inactive) | 29.3 µM (inactive) | 18.9 µM (inactive) | 14.2 µM (inactive) | 18.4 | 17.7 µM (inactive) | 18.2 µM (inactive) | 15 µM (inactive) | 23.3 µM (inactive) | 13.4 µM (inactive) | 8.59 µM (inactive) | 16.3 µM (inactive) | 10.8 µM (inactive) | 10.5 µM (inactive) | 30.8 µM (inactive) | 9.55 µM (inactive) | 20.3 µM (inactive) | 16.7 µM (inactive) | 12.2 µM (inactive) | –
CCOC(=O)c1cc(C2(OC)CCN(Cc3ccccc3)C2=O)c(-c2cc(C)no2)[nH]1 (configuration not stated) | > 100 µM (inactive) | > 100 µM (inactive) | > 100 µM (inactive) | 93.1 µM (inactive) | > 100 | > 100 µM (inactive) | > 100 µM (inactive) | > 100 µM (inactive) | > 100 µM (inactive) | – | 99.5 µM (inactive) | > 100 µM (inactive) | > 100 µM (inactive) | 97.1 µM (inactive) | > 100 µM (inactive) | > 100 µM (inactive) | > 100 µM (inactive) | > 100 µM (inactive) | > 100 µM (inactive) | > 100 µM (inactive)
O=C(Nc1ccccc1)c1cc(S(=O)(=O)N2CCNC2=O)c(S)cc1Cl | > 100 µM (inactive) | 36.6 µM (inactive) | > 100 µM (inactive) | > 100 µM (inactive) | > 100 | > 100 µM (inactive) | > 100 µM (inactive) | > 100 µM (inactive) | > 100 µM (inactive) | – | > 100 µM (inactive) | > 100 µM (inactive) | > 100 µM (inactive) | > 100 µM (inactive) | > 100 µM (inactive) | > 100 µM (inactive) | > 100 µM (inactive) | > 100 µM (inactive) | > 100 µM (inactive) | > 100 µM (inactive)
C/C(=N\O)c1ccc(OCc2cc(C(F)(F)F)cc(C(F)(F)F)c2)cc1 | 41.2 µM (inactive) | 78.2 µM (inactive) | > 100 µM (inactive) | 78.5 µM (inactive) | 30.5 | 75 µM (inactive) | 19.3 µM (inactive) | 41 µM (inactive) | > 100 µM (inactive) | 40.6 µM (inactive) | 21.8 µM (inactive) | 55.2 µM (inactive) | 57.1 µM (inactive) | 50.9 µM (inactive) | > 100 µM (inactive) | 51.9 µM (inactive) | 32 µM (inactive) | > 100 µM (inactive) | 38.5 µM (inactive) | –
CC(=O)OC(C)(C)CCC(=O)[C@](C)(O)[C@H]1[C@H](O)C[C@@]2(C)[C@@H]3CCc4c(cc(OC5OC(CO)C(O)C(O)C5O)c(O)c4C)C3(C)C(=O)C[C@]12C (some centres not stated) | > 100 µM (inactive) | > 100 µM (inactive) | > 100 µM (inactive) | > 100 µM (inactive) | > 100 | > 100 µM (inactive) | > 100 µM (inactive) | > 100 µM (inactive) | > 100 µM (inactive) | > 100 µM (inactive) | > 100 µM (inactive) | > 100 µM (inactive) | > 100 µM (inactive) | > 100 µM (inactive) | > 100 µM (inactive) | > 100 µM (inactive) | > 100 µM (inactive) | > 100 µM (inactive) | > 100 µM (inactive) | –
COc1cc(/C=C2\N=C(c3ccccc3)N(c3ccc4c(c3)Sc3cc(N5C(=O)/C(=C/c6cc(OC)c(OC)c(OC)c6)N=C5c5ccccc5)ccc3N4)C2=O)cc(OC)c1OC | 20.9 µM (inactive) | 18.5 µM (inactive) | 54.3 µM (inactive) | 22.8 µM (inactive) | > 100 | 17 µM (inactive) | > 100 µM (inactive) | 31.6 µM (inactive) | 25.7 µM (inactive) | – | 20.7 µM (inactive) | 22.9 µM (inactive) | 18.5 µM (inactive) | 16.5 µM (inactive) | 21.3 µM (inactive) | 24.7 µM (inactive) | 42.7 µM (inactive) | 16.9 µM (inactive) | 16.9 µM (inactive) | 27.4 µM (inactive)
C=CCNC1=C2C[C@@H](C)C[C@@H](OC)[C@H](OC(=O)CN)[C@H](C)/C=C(\C)[C@@H](OC(N)=O)[C@H](OC)/C=C\C=C(/C)C(=O)NC(=CC1=O)C2=O | 1.49 µM (inactive) | 4.6 µM (inactive) | 0.783 µM (active) | 5.77 µM (inactive) | 3.49 | 0.927 µM (active) | 0.27 µM (active) | 0.371 µM (active) | 3.71 µM (inactive) | – | 1.95 µM (inactive) | 0.488 µM (active) | 0.453 µM (active) | 0.476 µM (active) | 0.162 µM (active) | 1.7 µM (inactive) | 0.183 µM (active) | 0.355 µM (active) | 0.528 µM (active) | 3.59 µM (inactive)
COC(=O)c1nn2ccc3ccccc3c2c1C(=O)OC | 75.2 µM (inactive) | 48.9 µM (inactive) | > 100 µM (inactive) | 2.37 µM (inactive) | 54.3 | 88.9 µM (inactive) | 58.7 µM (inactive) | 33 µM (inactive) | 53 µM (inactive) | > 100 µM (inactive) | 59.2 µM (inactive) | > 100 µM (inactive) | > 100 µM (inactive) | 37 µM (inactive) | > 100 µM (inactive) | 72.8 µM (inactive) | > 100 µM (inactive) | > 100 µM (inactive) | 60.7 µM (inactive) | –
COc1cccc(-c2cc(=O)c3ccc(C)nc3[nH]2)c1 | 0.0491 µM (active) | 0.0458 µM (active) | 0.0824 µM (active) | 1.96 µM (inactive) | 0.0402 | 0.0461 µM (active) | 0.0366 µM (active) | 0.0454 µM (active) | 0.245 µM (active) | 0.0434 µM (active) | 0.0274 µM (active) | 0.0371 µM (active) | 0.0541 µM (active) | 0.036 µM (active) | 0.051 µM (active) | 0.0201 µM (active) | 0.0383 µM (active) | > 100 µM (inactive) | – | 0.034 µM (active)
CC1(C)OC(CP(c2ccccc2)c2ccccc2)C(CP(c2ccccc2)c2ccccc2)O1 (configuration not stated) | 1.83 µM (inactive) | 2.92 µM (inactive) | 2.23 µM (inactive) | 0.914 µM (active) | 3.22 | 0.222 µM (active) | 0.617 µM (active) | 1.79 µM (inactive) | 1.22 µM (inactive) | – | 0.857 µM (active) | 0.544 µM (active) | 1.81 µM (inactive) | 2.13 µM (inactive) | 3.55 µM (inactive) | 1.36 µM (inactive) | 1.17 µM (inactive) | > 19.8 µM (inactive) | – | 1.17 µM (inactive)
C=CCOc1cc2c(cc1C(C)c1ccc(OC)cc1)OCO2 (configuration not stated) | 0.655 µM (active) | 0.628 µM (active) | 10.6 µM (inactive) | – | 0.489 | – | 0.372 µM (active) | 0.67 µM (active) | 11.5 µM (inactive) | 0.813 µM (active) | 0.091 µM (active) | 0.299 µM (active) | 16.6 µM (inactive) | 0.601 µM (active) | 0.311 µM (active) | 0.176 µM (active) | 0.375 µM (active) | 7.41 µM (inactive) | 0.263 µM (active) | 0.78 µM (active)
